Reference: patent US20230416307A1, “[…] PEPTIDES FOR ENHANCING VIRAL PRODUCTION” (Synvivia, Inc., priority 2022, published 2023)

What was measured:
[1] = system: AAV2; assay: Physical titer (qPCR or ddPCR, VG/ml) of AAVs packaged in cells expressing a CP; type: cell-based, adeno-associated virus; conditions: FIG. 20A; GFP payload; cells expressing individual CP relative to no CP expression
Experimental: (§1) FIG. 20. Exemplary bar charts showing fold improvement of physical titer and/or biological titer for various CPs. […] The payload being packaged during AAV production is GFP only. The cyclic peptide generator is located on a separate DNA, is only expressed by the host cell, and is not able to be packaged. Physical titer is quantified by qPCR or ddPCR and expressed as viral genomes produced per mL (VG/ml) of AAV packaging cells and media. […] Biological titer is measured in vitro by transducing a standardized number of wild-type (WT) mammalian (HEK293) cells with diluted AAVs harvested after packaging with or without CP expression. The transductants are identified by GFP payload expression. The fold improvement is calculated by dividing the percentage of GFP expressing (transduced) cells after transduction with AAVs packaged in cells expressing a CP by the percentage of GFP expressing (transduced) cells after transduction with AAVs packaged in cells that are not expressing a CP.
Primers binding the eGFP reporter protein were used to measure the virus titer with quantitative polymerase chain reaction (qPCR). Before releasing the viral DNA from the particles, all extra-viral DNA was removed by digestion with DNase I. Then, the viral DNA was released by alkaline lysis. The qPCR was performed using the PowerUp™ SYBR™ Green Master Mix (Applied Biosystems), and primers against the zsGreen obtained from Integrated DNA Technologies. The extracted viral DNA and a serial dilution of a viral plasmid containing z as a standard were measured using the CFX96 Touch Real-Time PCR Detection System and the CFX Maestro Software (Bio-Rad, Hercules, CA).
(§2) 50-70% confluent HEK-293T cells (˜10^6 total cells) grown in DMEM supplemented with 5% FBS were quadruple transfected with pHelper Vector, pAAV-ZsGreenl Vector, AAVpro® Packaging Rep-Cap Plasmid (AAV2), and pTargeT Mammalian Expression Vector with cloned individual cyclic peptide generator of interest in a 1:1:1:1 molar ratio normalized to the plasmid size using JetOptimus Transfection Reagent in 100 mm TC treated petri dish. AAV preparation is conducted as described above. Biological viral titer measurement is performed as described above.
(§3) • 1. A 100-mm cell culture dish was reseeded with 4.0×10^6 Hek293T cells in high glucose DMEM culture medium supplemented with 10% FBS. • 2. One day after plating, the cells (70-80% confluence) were co-transfected with 3.2ug pRC2 which encodes Rep and Cap genes (SEQ ID NO: 1-7), 4.6ug pHelper which encodes Adenovirus helper genes (SEQ ID NO: 16-19, 22, 23), 2.2ug payload vector, and 1-100ng engineered cyclic peptide expression vector (if using). A jetOPTIMUS DNA transfection reagent i used during the transfection protocol (from Polyplus). • 3. 12-16 hours after transfection, media was replaced with low glucose DMEM culture medium supplemented with 1% FBS, 1×Glutamax, 10 mM HEPES, and 0.075% sodium bicarbonate. • 4. Cells and media were harvested 4 days after transfection and frozen in 1 mL aliquots. • 5. Frozen aliquots were thawed and lysed using AAVMax Lysis Reagent (Life Technologies, USA, A50520). 100 uL of AAVMax Lysis buffer was added to 900 uL of cell and media. Mixture was incubated for 2 hours with rotating. Debris was pelleted at 5,000xg for 15 minutes. AAV containing supernatant was collected. • 6. The physical and biological titers of the harvested AAV samples were determined by qPCR and biological viral titer measurement as described in Example 1.
The physical titer fold improvement was calculated by dividing the physical titer of AAVs packaged in cells expressing a CP by the physical titer of cells that are not expressing a CP.

[2] = system: AAV2; assay: Biological titer of AAVs packaged in cells expressing a CP (GFP-positive transduced HEK293 cells); type: cell-based, adeno-associated virus; conditions: FIG. 20B; HEK293 transduction; cells expressing individual CP relative to no CP expression
Experimental: as §1
HEK-293T were reseeded in a 24 well tissue culture treated plate at a density of 1-2*10^4 cells/well in 0.5 mL of DMEM with 10% FBS. Cells were cultured overnight. 10-fold serial dilutions of prepared AAV2 particle solutions using DMEM with 10% FBS were used to infect the HEK-293T cells. Dilutions ranged from 1:10 to 1:10000. On Day 3 after infection, cells were detached using Trypsin/EDTA and analyzed for eGFP expression by image-based cytometry.
as §2, §3
The fold improvement in biological titer was calculated by dividing the percentage of GFP expressing (transduced) cells after transduction with AAVs packaged in cells expressing a CP by the percentage of GFP expressing (transduced) cells after transduction with AAVs packaged in cells that are not expressing a CP.

## CYPLH: engineered cyclic peptide, SEQ ID NO: 60 (cyclic; Cyclic peptide that was found to enhance AAV viral titer)
[1]
  fold improvement in physical titer of AAVs: fold improvements in physical titer
[2]
  fold improvement in biological titer of AAVs: fold improvements in biological titer

## CARFR: engineered cyclic peptide, SEQ ID NO: 51 (cyclic; Cyclic peptide that was found to enhance AAV viral titer)
[2]
  fold improvement in biological titer of AAVs: fold improvements in biological titer

## CADTV: engineered cyclic peptide, SEQ ID NO: 49 (cyclic; Cyclic peptide that was found to enhance AAV viral titer)
[1]
  fold improvement in physical titer of AAVs: fold improvements in physical titer

## CSVPY: engineered cyclic peptide, SEQ ID NO: 58 (cyclic; Cyclic peptide that was found to enhance AAV viral titer)
[2]
  fold improvement in biological titer of AAVs: fold improvements in biological titer

## CQVTRM: engineered cyclic peptide, SEQ ID NO: 55 (cyclic; Cyclic peptide that was found to enhance AAV viral titer; We observed log10 enrichment score of 3.258, mean of 74 experimental replicates. We observed excellent mean log10 enrichment scores for this cyclic peptide across multiple AAV serotypes: AAV1_3.4; AAV2_3.3; AAV5_3.2; AAV6_3.1. Cyclo-CQVTRM possesses the following motifs: POL_HYD_POL-motif; POL_POL_HYD-motif; POS_HYD_POL-motif.)
[1]
  fold improvement in physical titer of AAVs: fold improvements in physical titer
[2]
  fold improvement in biological titer of AAVs: fold improvements in biological titer

## CYVTTD: engineered cyclic peptide, SEQ ID NO: 62 (cyclic; Cyclic peptide that was found to enhance AAV viral titer; We observed log10 enrichment score of 3.986, mean of 70 experimental replicates. We observed excellent mean log10 enrichment scores for this cyclic peptide across multiple AAV serotypes: AAV1_4.2; AAV2_4.1; AAV5_3.6; AAV6_3.9. Cyclo-CYVTTD possesses the following motifs: ARO_HYD_POL-motif; POL_POL_NEG-motif; NEG_POL_ARO-motif.)
[1]
  fold improvement in physical titer of AAVs: fold improvements in physical titer
[2]
  fold improvement in biological titer of AAVs: fold improvements in biological titer

## CTCKK: engineered cyclic peptide, SEQ ID NO: 59 (cyclic; Cyclic peptide that was found to enhance AAV viral titer)
[1]
  fold improvement in physical titer of AAVs: fold improvements in physical titer

## CSDPSA: engineered cyclic peptide, SEQ ID NO: 56 (cyclic; Cyclic peptide that was found to enhance AAV viral titer; We observed log10 enrichment score of 3.653, mean of 76 experimental replicates. We observed excellent mean log10 enrichment scores for this cyclic peptide across multiple AAV serotypes: AAV1_3.5; AAV2_4.0; AAV5_3.0; AAV6_3.4. Cyclo-CSDPSA possesses the following motifs: POL_HYD_POL-motif; NEG_HYD_POL-motif; POL_NEG_HYD-motif; POL_POL_NEG-m)
[1]
  fold improvement in physical titer of AAVs: fold improvements in physical titer
[2]
  fold improvement in biological titer of AAVs: fold improvements in biological titer

## CAAAS: engineered cyclic peptide, SEQ ID NO: 48 (cyclic; Cyclic peptide that was found to enhance AAV viral titer)
[1]
  fold improvement in physical titer of AAVs: fold improvements in physical titer
[2]
  fold improvement in biological titer of AAVs: fold improvements in biological titer

## CQSRS: engineered cyclic peptide, SEQ ID NO: 54 (cyclic; Cyclic peptide that was found to enhance AAV viral titer)
[1]
  fold improvement in physical titer of AAVs: fold improvements in physical titer

## CPKNP: engineered cyclic peptide, SEQ ID NO: 53 (cyclic; Cyclic peptide that was found to enhance AAV viral titer)
[1]
  fold improvement in physical titer of AAVs: fold improvements in physical titer

## CANMPY: engineered cyclic peptide, SEQ ID NO: 50 (cyclic; Cyclic peptide that was found to enhance AAV viral titer; We observed log10 enrichment score of 2.959, mean of 79 experimental replicates. We observed excellent mean log10 enrichment scores for this cyclic peptide across multiple AAV serotypes: AAV1_3.0; AAV2_3.1; AAV5_2.8; AAV6_2.7. This CP possesses the following motifs: POL_HYD_POL-motif; HYD_ARO_POL-motif; POL_HYD_HYD-motif.)
[2]
  fold improvement in biological titer of AAVs: fold improvements in biological titer

## CSESCP: engineered cyclic peptide, SEQ ID NO: 57 (cyclic; Cyclic peptide that was found to enhance AAV viral titer)
[1]
  fold improvement in physical titer of AAVs: fold improvements in physical titer
[2]
  fold improvement in biological titer of AAVs: fold improvements in biological titer

## CRRHYA: engineered cyclic peptide, SEQ ID NO: 230
[2]
  fold improvement in biological titer of AAVs: fold improvements in biological titer

## CETDV: engineered cyclic peptide, SEQ ID NO: 52 (cyclic; Cyclic peptide that was found to enhance AAV viral titer)
[2]
  fold improvement in biological titer of AAVs: fold improvements in biological titer

## CKDYFS: engineered cyclic peptide expressed from a generator plasmid, SEQ ID NO: 34 (cyclic; Cyclic peptide that was found to increase AAV viral titer.)
[1]
  fold improvement in physical titer of AAVs: fold improvements in physical titer

## CYSPF: engineered cyclic peptide, SEQ ID NO: 61 (cyclic; Cyclic peptide that was found to enhance AAV viral titer)
[2]
  fold improvement in biological titer of AAVs: fold improvements in biological titer
